Measurements: patent US20080280303A1, “G-PROTEIN COUPLED RECEPTORS HIGH-[…]” (priority 2003, published 2008)

Tests used:
Format in all cases: cell-based
EPAC = molecular target: T1, EPAC (Homo sapiens, UniProt O95398); assay: R-SAT proliferation, EPAC co-expressed with ras/rapAA, with or without 8-Br cAMP; conditions: 250 uM 8-Br cAMP; ras/rapAA 20 ng per well
T1 construct: expressed in transfected cells; host or cells: NIH 3T3
T1 sequence (O95398 1-923): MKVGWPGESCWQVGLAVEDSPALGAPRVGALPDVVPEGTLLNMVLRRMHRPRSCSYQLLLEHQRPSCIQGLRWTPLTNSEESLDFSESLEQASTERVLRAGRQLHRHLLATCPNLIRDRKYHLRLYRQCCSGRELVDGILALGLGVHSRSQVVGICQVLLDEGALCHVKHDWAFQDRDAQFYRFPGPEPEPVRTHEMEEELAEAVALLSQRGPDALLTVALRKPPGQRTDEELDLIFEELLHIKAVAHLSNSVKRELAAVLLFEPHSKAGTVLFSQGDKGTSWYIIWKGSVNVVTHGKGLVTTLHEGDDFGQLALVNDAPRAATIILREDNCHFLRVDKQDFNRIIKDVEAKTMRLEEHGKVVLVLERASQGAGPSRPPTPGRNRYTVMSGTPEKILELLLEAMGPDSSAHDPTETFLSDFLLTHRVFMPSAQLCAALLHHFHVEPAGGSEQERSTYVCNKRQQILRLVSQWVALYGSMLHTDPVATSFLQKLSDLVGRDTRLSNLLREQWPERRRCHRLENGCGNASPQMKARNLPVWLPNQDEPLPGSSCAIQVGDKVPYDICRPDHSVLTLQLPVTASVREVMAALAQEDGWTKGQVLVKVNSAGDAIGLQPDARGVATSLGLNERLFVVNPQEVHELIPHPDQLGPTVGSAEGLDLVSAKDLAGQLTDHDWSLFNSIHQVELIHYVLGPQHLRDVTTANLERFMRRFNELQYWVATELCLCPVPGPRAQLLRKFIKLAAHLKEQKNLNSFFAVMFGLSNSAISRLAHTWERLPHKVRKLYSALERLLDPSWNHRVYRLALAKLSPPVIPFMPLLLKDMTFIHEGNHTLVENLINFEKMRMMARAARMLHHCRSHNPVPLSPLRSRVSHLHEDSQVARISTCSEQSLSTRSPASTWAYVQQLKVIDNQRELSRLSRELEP
Description: FIG. 2. Characterization of regulation and signaling properties of ras/rap chimeras. A) Proliferative responses of ras, rap, and ras/rap measured in R-SAT. 4 ng/well each of wild-type or GTPase deficient (V 12) mutants of ras, rap1A, or ras/rap1A (24) were transfected and analyzed for proliferative responses as described in Methods. B & C) Rap-selective exchange factors activate cellular proliferation in a ras/rap chimera dependent manner. B) Synergy of EPAC with ras/rap chimeras. Two ng per well of the rap selective exchange factor EPAC was co-expressed with 20 ng per well of either rap1B, ras/rap1A, ras/rap1B, ras/rapAA, or control vector and analyzed for proliferative responses as described above. C) Synergy of C3G with ras/rap chimeras. Twenty ng per well of the rap selective exchange factor C3G (68) was co-expressed with 20 ng per well of either rap1B, ras/rap1A, ras/rap1B, ras/rapAA, or control vector and analyzed for proliferative responses as described above. D) The indicated doses (ng per well) of EPAC were co-expressed with 20 ng per well of ras/rapAA in the presence or absence of 250 uM 8-Br cAMP and analyzed for proliferative responses as described above. […] Either 10 ng per well of control vector, ras or ras/rapAA was co-expressed with EPAC (2 ng per well), C3G (10 ng per well), or Sos2 (10 ng per well) and analyzed for proliferative responses. […]

5HT1E serotonin receptor = molecular target: T2, 5HT1E serotonin receptor (Homo sapiens, UniProt P28566); assay: R-SAT cellular proliferation, 5HT1E co-expressed with ras/rapAA, with or without pertussis toxin; conditions: 100 ug/ml pertussis toxin; agonist BRL54443; NIH 3T3 cells
T2 construct: expressed in transfected cells; host or cells: NIH 3T3
Description: (§1) FIG. 4. Pertussis toxin sensitivity of ras/rap dependent proliferative responses to Gs-coupled and Gi-coupled GPCRs. A) D1 (4 ng per well) and ras/rapAA (20 ng per well) were co-expressed and analyzed for proliferative responses in the presence or absence of 100 ug/ml pertussis toxin in the presence of the indicated concentrations of SKF81297. B) 5HT1E (20 ng per well) and ras/rapAA (20 ng per well) were co-expressed and analyzed for proliferative responses in the presence or absence of 100 ug/ml pertussis toxin in the presence of the indicated concentrations of BRL54443. C) D2 (4 ng/well), alpha2C (20 ng/well), and SST5 (4 ng/well) were each expressed with ras/rapAA (20 ng/well), incubated with the indicated concentrations of ligand and either with or without 100 ng/ml pertussis toxin (PTX) and analyzed for proliferative responses as described above. Control represents the receptors expressed alone.
(§2) Functional assays. […] After five days in culture β-galactosidase levels were measured essentially as described (35). […] After 3 hr the plates were read at 420 nm on a plate-reader (Bio-Tek EL 310 or Molecular Devices). […]

D1 dopamine receptor = molecular target: T3, D1 dopamine receptor (Homo sapiens, UniProt P21728); assay: R-SAT cellular proliferation, D1 co-expressed with ras/rapAA, with or without pertussis toxin; conditions: 100 ug/ml pertussis toxin; agonist SKF81297; NIH 3T3 cells
T3 construct: expressed in transfected cells; host or cells: NIH 3T3
Description: as §1, §2

GPR12 = molecular target: T4, GPR12 (Homo sapiens, UniProt P47775); assay: R-SAT constitutive proliferation, orphan receptor with ras/rapAA and ACII, with or without pertussis toxin; conditions: PTX, 100 ng/ml
T4 construct: expressed in transfected cells
T4 sequence (P47775 1-334): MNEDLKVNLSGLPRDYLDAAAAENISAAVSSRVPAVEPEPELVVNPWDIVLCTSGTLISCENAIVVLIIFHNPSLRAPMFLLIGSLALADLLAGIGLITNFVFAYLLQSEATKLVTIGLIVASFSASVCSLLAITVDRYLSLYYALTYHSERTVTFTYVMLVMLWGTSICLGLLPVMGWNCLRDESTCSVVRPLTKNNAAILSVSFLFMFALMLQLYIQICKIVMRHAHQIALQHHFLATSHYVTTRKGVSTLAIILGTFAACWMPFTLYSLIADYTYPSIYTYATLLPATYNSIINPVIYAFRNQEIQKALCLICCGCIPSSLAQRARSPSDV
Description: (§3) FIG. 7. Functional validation and characterization of orphan GPCRs using helper genes. A) The indicated receptors were expressed at two doses either alone, with ras/rapAA (20 ng/well) and ACII (2 ng/well), or Gαq (4 ng/well) and analyzed for constitutive stimulation of cellular proliferation as described above. Control represents the transfection of the same helper genes with vector substituting for receptor. The transfections were all balanced with vector to ensure the same total amount of DNA was transfected in each case. PI hydrolysis assays were carried out using tsa cells transfected with 20 ng/well of each receptor as described in Methods. B) The indicated receptors were expressed at two doses either alone, with ras/rapAA (20 ng/well) and ACII (2 ng/well), or Gαq (4 ng/well) and analyzed for constitutive stimulation of cellular proliferation as described above. Control represents the transfection of the same helper genes with vector substituting for receptor. The transfections were all balanced with vector to ensure the same total amount of DNA was transfected in each case. Cyclic AMP accumulation assays were carried out using HEK293 cells transfected with 20 ng/well of each receptor as described in Methods. C) The indicated receptors were expressed at with ras/rapAA (20 ng/well) and ACII (2 ng/well), incubated in the presence or absence of pertussis toxin (PTX, 100 ng/ml) and analyzed for constitutive stimulation of cellular proliferation as described above. Control represents the transfection of the same helper genes with vector substituting for receptor. D) The indicated receptors were tested for stimulation of cyclic AMP production as described in the experimental methods.
as §2

GPR3 = molecular target: T5, GPR3 (Homo sapiens, UniProt P46089); assay: as above; conditions: PTX, 100 ng/ml
T5 construct: expressed in transfected cells
Description: as §3, §2

GPR6 = molecular target: T6, GPR6 (Homo sapiens, UniProt P46095); assay: as above; conditions: PTX, 100 ng/ml
T6 construct: expressed in transfected cells
Description: as §3, §2

T2 sequence (P28566 whole entry): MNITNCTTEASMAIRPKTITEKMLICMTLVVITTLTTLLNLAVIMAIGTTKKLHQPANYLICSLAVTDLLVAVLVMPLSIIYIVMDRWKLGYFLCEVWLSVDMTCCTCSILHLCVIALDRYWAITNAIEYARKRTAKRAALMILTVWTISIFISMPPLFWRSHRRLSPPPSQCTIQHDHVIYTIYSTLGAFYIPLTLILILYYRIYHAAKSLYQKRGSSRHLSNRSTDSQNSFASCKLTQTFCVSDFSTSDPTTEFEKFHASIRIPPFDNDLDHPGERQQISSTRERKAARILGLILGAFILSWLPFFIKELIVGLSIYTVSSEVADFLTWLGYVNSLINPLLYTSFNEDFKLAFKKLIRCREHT
T3 sequence (P21728 whole entry): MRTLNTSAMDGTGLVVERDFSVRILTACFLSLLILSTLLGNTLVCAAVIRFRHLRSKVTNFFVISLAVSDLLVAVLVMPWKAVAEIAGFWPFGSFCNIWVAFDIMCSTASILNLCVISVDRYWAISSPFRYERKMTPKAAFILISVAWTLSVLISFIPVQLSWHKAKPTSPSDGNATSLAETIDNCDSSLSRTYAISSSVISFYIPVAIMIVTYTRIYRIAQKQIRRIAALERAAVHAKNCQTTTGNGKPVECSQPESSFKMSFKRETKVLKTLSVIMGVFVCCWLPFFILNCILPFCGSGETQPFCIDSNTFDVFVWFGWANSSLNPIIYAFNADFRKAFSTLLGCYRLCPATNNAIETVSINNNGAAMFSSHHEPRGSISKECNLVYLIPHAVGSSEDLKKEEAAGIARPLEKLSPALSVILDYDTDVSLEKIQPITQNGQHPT
T6 sequence (P46095 whole entry, species assumed): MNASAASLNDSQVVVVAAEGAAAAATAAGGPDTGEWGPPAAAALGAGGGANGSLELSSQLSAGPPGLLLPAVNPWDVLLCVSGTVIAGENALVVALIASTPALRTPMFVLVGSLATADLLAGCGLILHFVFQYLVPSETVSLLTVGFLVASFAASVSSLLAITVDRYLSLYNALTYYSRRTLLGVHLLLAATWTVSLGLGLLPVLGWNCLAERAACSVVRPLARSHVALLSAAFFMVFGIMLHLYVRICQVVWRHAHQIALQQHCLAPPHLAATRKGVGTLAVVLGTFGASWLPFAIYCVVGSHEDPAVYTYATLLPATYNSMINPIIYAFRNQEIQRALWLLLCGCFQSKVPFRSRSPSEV
T5 sequence (P46089 whole entry, species assumed): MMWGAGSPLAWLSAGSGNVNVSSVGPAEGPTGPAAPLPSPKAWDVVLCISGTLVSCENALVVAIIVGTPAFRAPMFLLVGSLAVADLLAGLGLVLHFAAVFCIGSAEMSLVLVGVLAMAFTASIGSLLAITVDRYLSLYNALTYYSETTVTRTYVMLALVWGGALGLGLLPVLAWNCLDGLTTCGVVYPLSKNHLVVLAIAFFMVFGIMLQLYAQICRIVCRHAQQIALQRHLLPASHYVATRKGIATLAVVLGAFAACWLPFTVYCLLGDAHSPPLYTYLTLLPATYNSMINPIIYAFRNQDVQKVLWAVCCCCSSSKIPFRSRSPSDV

Molecule | stimulation of EPAC to induce ras/rap-dependent responses (EPAC) | effect on ras/rap dependent responses to 5HT1E (5HT1E serotonin receptor) | effect on ras/rap dependent responses to D1 (D1 dopamine receptor) | effect on helper gene dependent constitutive response to GPR12 (GPR12) | effect on helper gene dependent constitutive response to GPR3 (GPR3) | effect on helper gene dependent constitutive response to GPR6 (GPR6)
Nc1ncnc2c1nc(Br)n2[C@@H]1O[C@@H]2COP(=O)(O)O[C@H]2[C@H]1O [8-Br cAMP] | stimulated |  |  |  |  | 
pertussis toxin |  | completely blocked | did not block, and slightly increased | hardly affected | hardly affected | significantly blunted
